Experimental data reported in PubChem BioAssay AID179 (DTP/NCI, 2004).
“And” between values parts separate entries of the source, which are not always exact repeats. Identical values can stand only once. The source made the active and inactive calls.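 The calls were made as follows: active = compounds giving half or more protection of infected cells from virus-caused growth loss, again on retest; inactive = the rest.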 Where a SMILES comes first, the peptide text is derived from it.

Tested on: CEM cells HIV-1 protection, formazan growth assay
Experiment: NCI AIDS Antiviral Assay
Settings: for IC50: measured here: growth of uninfected CEM cells
Experimental: The ability of compounds to protect human CEM cells from HIV-1 infection is measured as a screen for new compounds capable of inhibiting the HIV virus. Five concentrations of drug were tested on uninfected and infected cells and cell growth was measured using a soluble formazan assay. […] Compounds that provided at least 50% protection were retested. Compounds that provided at least 50% protection on retest were listed as moderately active. Compounds that reproducibly provided 100% protection were listed as confirmed active. […] Note that the inability to provide protection could be due to toxicity.

Q: How did the outcome turn out when O=C1CCCCC1CN1CCCCC1 (stereo not drawn) was run?
A: inactive

Q: With N=C1C(=N)c2ccccc2-c2ccccc21 as the molecule, how does the EC50 read?
A: > 200 µM

Q: What about the IC50 of the same molecule?
A: 0.407 µM

Q: Which results are given for Cc1nc2c(=O)n(-c3ccccc3)c(=O)n(-c3ccccc3)c2o1?
A: EC50: > 200 µM; IC50: > 200 µM

Q: COc1ccc2[nH]c(S(=O)(=O)N3CC(CCl)c4ccc(N)cc43)cc2c1 (stereo not drawn) was tested. Which EC50 did it give?
A: > 0.2 µM

Q: What about the IC50 of the same molecule?
A: 0.102 µM

Q: Which EC50 does the source give for CCN1CCCn2c(=S)[nH]c3cc(Br)cc1c32 here?
A: 57.5 µM

Q: What about the IC50 of the same molecule?
A: 97.7 µM

Q: With CCOc1ccccc1NC(=O)C(=O)CC(=O)c1sc(Nc2nnc(-c3ccc(Cl)c(Cl)c3)o2)nc1C as the molecule, how does the EC50 read?
A: > 33.9 µM

Q: And the IC50?
A: > 33.9 µM

Q: Which EC50 does the source give for c1ccc2c(c1)CC1c3[nH]c4ccccc4c3CCN21 (stereo not drawn) here?
A: > 200 µM

Q: And the IC50?
A: 55 µM

Q: Which results are given for COc1cc(C=Nc2ccc(C(C)C)cc2)cc(OC)c1OC?
A: EC50: > 16.6 µM; IC50: > 16.6 µM

Q: Which outcome does the source give for CC1(C)OC(=O)C(C)(C)C(=O)O1 here?
A: inactive

Q: How did the EC50 turn out when CC(=O)c1c(-c2ccccc2)c(-c2ccc(OCCN(C)C)cc2)n2ccccc12 was run?
A: > 200 µM

Q: And the IC50?
A: 7.59 µM

Q: With CCOC(=O)Cn1c(=O)cc(C)c2ccccc21 as the molecule, how does the EC50 read?
A: > 200 µM

Q: And the IC50?
A: > 200 µM

Q: With Cc1ccc(NC(=O)CCCC(=O)CC(=O)c2ccc(Br)cc2)cc1 as the molecule, how does the EC50 read?
A: > 309 µM

Q: And the IC50?
A: > 309 µM

Q: With O=C(O)CCNC(=O)c1ccccc1SC(=O)CCCC[n+]1ccccc1 as the molecule, how does the EC50 read?
A: 21.9 µM

Q: What about the IC50 of the same molecule?
A: > 200 µM

Q: NS(=O)(=O)c1ccc(Nc2c3ccccc3nc3c(C(=O)NC(CO)(CO)CO)cccc23)cc1 was tested. Which EC50 did it give?
A: > 200 µM

Q: And the IC50?
A: 3.39 µM

Q: How did the EC50 turn out when CSC1(C)CC2C(CC1N1CCOCC1)C2(C)C (stereo not drawn) was run?
A: > 95.5 µM

Q: And the IC50?
A: > 95.5 µM

Q: Which results are given for CC1=NOC/C1=N\Nc1ccc(C(C)=NC2C3CC4CC(C3)CC2C4)cc1 (stereo not drawn)?
A: EC50: > 27.5 µM; IC50: > 27.5 µM

Q: Which outcome does the source give for O=C(Nc1ccc(Cl)cc1)NS(=O)(=O)c1c(-c2ccccc2)oc2ccccc2c1=O here?
A: inactive

Q: CCOc1ncn(-c2ccc(NC(=S)NC3OC(CO)C(O)C(O)C3O)cc2)n1 (stereo not drawn) was tested. Which EC50 did it give?
A: > 200 µM

Q: And the IC50?
A: > 200 µM

Q: COc1ccccc1NC(=O)/C(=C/n1c(=S)sc2ccccc21)C(C)=O was tested. Which EC50 did it give?
A: > 200 µM

Q: And the IC50?
A: 115 µM

Q: Which EC50 does the source give for S=c1[nH][nH]c(=S)c2c1[nH]c(=S)n2Cc1ccccc1 here?
A: 41.7 µM

Q: What about the IC50 of the same molecule?
A: 43.7 µM

Q: What does the source list for COC(=O)c1ccccc1/C=C1\Cc2cc3c(cc2C1=O)CCC3?
A: EC50: > 200 µM; IC50: 45.7 µM

Q: How did the EC50 turn out when CC[C@@]12N=C(N(C)C)C[C@]1(O)ON=C2C was run?
A: > 200 µM

Q: What about the IC50 of the same molecule?
A: > 200 µM

Q: CC(=O)C(CN(CC(C)C)CC(C)C)C(c1ccccc1)c1c(O)c2ccccc2oc1=O (stereo not drawn) was tested. Which EC50 did it give?
A: > 28.2 µM

Q: What about the IC50 of the same molecule?
A: > 28.2 µM

Q: How did the EC50 turn out when CC(C)=CCC[C@@H](C)C1=C(O)C(Nc2ccccc2F)=C(C)C(=O)C1=O was run?
A: > 200 µM

Q: What about the IC50 of the same molecule?
A: 15.8 µM

Q: Which EC50 does the source give for Cc1nn(C(=O)Cc2ccccc2)c2c1C(c1ccc([N+](=O)[O-])cc1)SC(N)=N2 (stereo not drawn) here?
A: 77.6 µM

Q: And the IC50?
A: 117 µM

Q: How did the outcome turn out when COC(=O)NC(Nc1ccc(Cl)cc1Cl)(C(F)(F)F)C(F)(F)F was run?
A: inactive

Q: What does the source list for COc1cc(C(Cc2ccnc3ccccc23)Cc2ccnc3ccccc23)ccc1N(C)C?
A: EC50: > 16.2 µM; IC50: 3.16 µM

Q: With Cc1ccccc1N1C(=O)CC2(CCCC2)C1=O as the molecule, how does the EC50 read?
A: > 363 µM

Q: What about the IC50 of the same molecule?
A: 214 µM

Q: How did the EC50 turn out when O=c1c2cnccc2cc2n1CCc1c-2[nH]c2ccccc12 was run?
A: > 77.6 µM

Q: And the IC50?
A: 10.2 µM

Q: Which results are given for CC1=CC(C)=Nc2ccccc2N1?
A: EC50: > 200 µM; IC50: > 200 µM and 195 µM

Q: What does the source list for CC(C)CC(NC(=O)CNC(=O)C(CC(C)C)NC(=O)C(Cc1c[nH]cn1)NC(=O)C(CC(N)=O)NC(=O)C(C)NC(=O)C1CCCN1C(=O)C(Cc1ccc(O)cc1)NC(=O)C1CCCN1C(=O)C(C)NC(=O)C(CCC(=O)O)NC(=O)C(CC(=O)O)NC(=O)C(Cc1ccccc1)NC(=O)C(CC(N)=O)NC(=O)C(C)N)C(=O)O (stereo not drawn) (H-ANFDEAPYPANHLGL-OH; configuration not given here)?
A: EC50: > 38 µM; IC50: > 38 µM

Q: For C=C1CCOC2(C(O)C(C)(O)CO)NC(=O)C1(O)NC2=O (stereo not drawn), which outcome is on record?
A: inactive

Q: What does the source list for COc1ccc(OC)c2c(OC)cc(C)cc12?
A: EC50: > 200 µM; IC50: 89.1 µM

Q: CCCC[Si](CCCC)(CCCC)O[C@@H](/C=C/C(=O)OCC)[C@H](Cc1ccccc1)O[Si](CCCC)(CCCC)CCCC was tested. Which EC50 did it give?
A: > 200 µM

Q: What about the IC50 of the same molecule?
A: > 200 µM

Q: Which EC50 does the source give for COc1ccc(C(=O)Cc2nc3nnc(N)n3nc2CC(=O)c2ccc(OC)cc2)cc1 here?
A: > 575 µM

Q: What about the IC50 of the same molecule?
A: > 575 µM

Q: With CN(Cc1cnc2nc(N)nc(N)c2n1)c1ccc(C(=O)NC(CCC(=O)NC(CC(P(=O)(O)O)P(=O)(O)O)C(=O)O)C(=O)O)cc1 (stereo not drawn) as the molecule, how does the EC50 read?
A: > 100 µM

Q: And the IC50?
A: 0.219 µM

Q: With O=C1NC(=O)/C(=C\c2cccc(O)c2)N1 as the molecule, how does the EC50 read?
A: > 200 µM

Q: What about the IC50 of the same molecule?
A: > 200 µM

Q: How did the EC50 turn out when [Cu+2].[O-]/N=C/c1ccc(O)cc1[O-].[O-]/N=C/c1ccc(O)cc1[O-] was run?
A: > 26.9 µM

Q: And the IC50?
A: 13.2 µM

Q: CC1(n2[nH]c(=O)n(-c3ccccc3)c2=O)Cn2c(=O)n(-c3ccccc3)c(=O)n2-c2ccccc21 (stereo not drawn) was tested. Which EC50 did it give?
A: > 200 µM

Q: And the IC50?
A: > 200 µM

Q: Which results are given for O=[N+]([O-])c1cc(-c2nc(=S)[nH][nH]2)ccc1O?
A: EC50: > 1050 µM; IC50: 257 µM

Q: With COC(=O)C1=C2Nc3ccccc3[C@@]23CCN(Cc2ccccc2)C3C[C@H]1c1ccoc1 (stereo partly drawn) as the molecule, how does the EC50 read?
A: > 29.5 µM

Q: And the IC50?
A: > 29.5 µM

Q: Which outcome does the source give for CC1CC/C(=C\c2ccc(F)cc2)C2=C1C(c1ccc(F)cc1)n1c(s/c(=C\c3ccc(Cl)cc3)c1=O)=N2 (stereo not drawn) here?
A: inactive

Q: Which EC50 does the source give for O=C1CC(C(OCc2ccccc2)C(OCc2ccccc2)C(COCc2ccccc2)OCc2ccccc2)CC(=O)N1 (stereo not drawn) here?
A: > 200 µM

Q: What about the IC50 of the same molecule?
A: > 200 µM

Q: With NC(=O)NC12CC3CC(CC(F)(C3)C1)C2 as the molecule, how does the EC50 read?
A: > 1170 µM

Q: And the IC50?
A: > 1170 µM

Q: How did the EC50 turn out when COc1c(OC)c(O)c2c(=O)c(OC)c(-c3ccc4c(c3)OCO4)oc2c1O was run?
A: > 200 µM

Q: What about the IC50 of the same molecule?
A: 74.1 µM

Q: Which results are given for C=CCNC(=O)CN1NN=C(c2ccccc2)N1?
A: EC50: > 107 µM; IC50: 93.3 µM

Q: Which EC50 does the source give for COc1cc2c(c(OC)c1OC)C(=O)C1C2N1C(=O)CCCCl (stereo not drawn) here?
A: > 200 µM

Q: What about the IC50 of the same molecule?
A: > 200 µM

Q: Which results are given for O=C(O)C[C@@H]1C(=O)OC2C3COC(=O)c4cc(O)c(O)c(O)c4-c4c(cc(O)c(O)c4O)C(=O)OC2C(OC(=O)c2cc(O)c(O)c4c2C1[C@H](O)C(=O)O4)C(OC(=O)c1cc(O)c(O)c(O)c1)O3 (stereo partly drawn)?
A: EC50: 2.63 µM; IC50: 12.9 µM

Q: What does the source list for CC1=Nc2nc(Cl)cn2C(=O)C1(Cl)Cl?
A: EC50: > 200 µM; IC50: 33.1 µM

Q: For Cc1ccc2nc(-c3ccc(-c4nc5ccc(C)cc5o4)c(O)c3)oc2c1, which EC50 is on record?
A: > 200 µM

Q: What about the IC50 of the same molecule?
A: > 200 µM

Q: What does the source list for O=C(O)c1cc2c(cc1C(=O)O)C(=O)C(c1ccccc1)C2=O?
A: EC50: > 200 µM; IC50: > 200 µM

Q: CCCCCCCCCCCCCCCCCC(=O)OCC(COC(=O)CCCN)OC(=O)CCCN (stereo not drawn) was tested. Which outcome did it give?
A: inactive

Q: For COc1cc(/C=C/C(=O)CC(=O)/C=C/c2ccc(OC(=O)CCCCC3CCSS3)c(OC)c2)ccc1OC(=O)CCCCC1CCSS1 (stereo not drawn), which EC50 is on record?
A: > 200 µM

Q: What about the IC50 of the same molecule?
A: > 200 µM

Q: How did the EC50 turn out when CCOC(=O)CCn1ncc(Cl)c(Cl)c1=O was run?
A: > 933 µM

Q: And the IC50?
A: 4.07 µM

Q: COc1ccc(C(=O)/C=C/c2ccc(OCCCCCCCCCCOc3ccc(/C=C/C(=O)c4ccc(OC)cc4)cc3)cc2)cc1 was tested. Which EC50 did it give?
A: > 200 µM

Q: And the IC50?
A: > 200 µM

Q: With O=C(N/N=C1/C(=O)N(c2ccc(Cl)cc2Cl)C(=O)C(=O)C1c1nc2ccccc2o1)c1ccccc1O (stereo not drawn) as the molecule, how does the outcome read?
A: inactive

Q: Which results are given for CS(=O)(=O)c1ccc(-c2cc(-c3ccc(S(C)(=O)=O)cc3)[n+](-c3cc(-c4ccc(S(C)(=O)=O)cc4)c([O-])c(-c4ccc(S(C)(=O)=O)cc4)c3)c(-c3ccc(S(C)(=O)=O)cc3)c2)cc1?
A: EC50: > 7.59 µM; IC50: > 7.59 µM

Q: Which EC50 does the source give for Nc1c([N+](=O)[O-])nc(Cl)c2nncn12 here?
A: > 234 µM

Q: What about the IC50 of the same molecule?
A: 120 µM
